Test system: HCV
Test: HCV eradication in HCV positive hemophilia patients (Working Example 6)
Assay type: in vivo, hepatitis C virus
Conditions: Patient No. 6, interferon-α-2b alone prior to administration in this example
Experimental: In Table 5, the severity of hemophilia was rated as mild when the level of coagulation factors exceeded 5%, moderate when this level was from 1 to 5%, and severe when this level was below 1%. The HCV-RNA level was measured with an Amplicor HCV Assay, version 2 (Roche) at the start of administration. The genotype of the HCV virus was determined from the base sequence of the 5′-UTR region thereof. HCV eradication was indicated as “yes” when HCV-RNA viruses were not detected for 24 weeks following the end of administration. The HIV infection state was determined by the HIV antibodies using a particle agglutination assay kit (Fujirebio Inc.).

**Q.** With interferon-α-2b as the substance, how does the HCV eradication read?
**A.** not eradicated

Reference: patent US20110117054A1, “USE OF RIBAVIRIN IN BLOOD COAGULATION DISORDER” (National University Corporation Nagoya University, priority 2007, published 2011)
